The results in this text go back to patent US20230167073A1 (Teijin Pharma Limited, priority 2020, published 2023).

A value given as a limit tells only on which side of the number the result lay.

This assay deals with T1, Human TRPC6 (Homo sapiens, UniProt Q9Y210).
T1 construct: expressed in transfected cells
T1 sequence (Q9Y210 1-931): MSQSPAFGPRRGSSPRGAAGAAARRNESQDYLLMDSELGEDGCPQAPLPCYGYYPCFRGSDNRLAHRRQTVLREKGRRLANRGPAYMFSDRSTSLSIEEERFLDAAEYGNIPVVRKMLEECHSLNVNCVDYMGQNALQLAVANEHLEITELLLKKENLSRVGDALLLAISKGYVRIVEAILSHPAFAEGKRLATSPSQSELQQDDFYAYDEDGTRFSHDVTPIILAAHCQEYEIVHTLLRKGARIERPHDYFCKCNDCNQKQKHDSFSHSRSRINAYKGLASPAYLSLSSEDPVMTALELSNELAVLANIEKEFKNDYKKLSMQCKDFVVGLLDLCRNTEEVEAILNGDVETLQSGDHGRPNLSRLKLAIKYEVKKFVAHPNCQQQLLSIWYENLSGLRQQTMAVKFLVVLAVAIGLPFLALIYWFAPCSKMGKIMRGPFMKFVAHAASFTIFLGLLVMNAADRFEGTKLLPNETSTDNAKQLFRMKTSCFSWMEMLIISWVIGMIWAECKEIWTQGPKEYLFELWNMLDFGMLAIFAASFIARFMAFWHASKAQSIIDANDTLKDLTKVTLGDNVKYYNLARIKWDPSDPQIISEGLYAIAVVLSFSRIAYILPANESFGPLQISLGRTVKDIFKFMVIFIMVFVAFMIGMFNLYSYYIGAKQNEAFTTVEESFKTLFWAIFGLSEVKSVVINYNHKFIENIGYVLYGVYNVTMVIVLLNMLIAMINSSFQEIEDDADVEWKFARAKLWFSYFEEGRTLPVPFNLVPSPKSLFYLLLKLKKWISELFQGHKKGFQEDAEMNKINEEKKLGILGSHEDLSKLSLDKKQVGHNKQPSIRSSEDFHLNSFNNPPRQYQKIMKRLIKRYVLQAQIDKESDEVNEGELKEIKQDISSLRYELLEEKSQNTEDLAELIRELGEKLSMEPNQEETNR
Put plainly: Evaluation of TRPC6 channel inhibitory activity (2), HEK293 cells with stably introduced human TRPC6, OAG stimulation, FLIPR tetra (Compound Nos. 1293 to 1405). It counts as cell-based. The note with it: HEK293 cells with stably introduced human TRPC6, OAG 50 μM/0.5% DMSO, read-out: Inhibitory activity (pIC50 class) (converted). The procedure, abridged: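 Calcium-dye-loaded HEK293 cells stably expressing human TRPC6 were pretreated with compound for 25 min, then stimulated with 50 μM OAG (0.5% DMSO) in Ca ringer buffer pH 7.2 with 2 mM CaCl2. Background-subtracted FLIPR calcium peaks were normalized to OAG (100%) and buffer (0%); pIC50 came from four-parameter logistic fit, binned as +/++/+++.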
Turning to `Cn1nc(-c2ccccn2)cc1Oc1cc(Cl)ccc1-c1ccc([C@@H](N)CO)cn1` [compound 1363, (2R)-2-amino-2-[6-[4-chloro-2-(2-methyl-5-pyridin-2-ylpyrazol-3-yl)oxyphenyl]pyridin-3-yl]ethanol], the IC50 is more than 1000 nM.

As to `Cc1nc(Oc2cc(Cl)ccc2-c2ncc([C@H](F)CN)cn2)cc(N2CCOCC2)n1` [compound 1375, (2S)-2-[2-[4-chloro-2-(2-methyl-6-morpholin-4-ylpyrimidin-4-yl)oxyphenyl]pyrimidin-5-yl]-2-fluoroethanamine], the IC50 is 10 to 1000 nM.

Take `Cn1cc(-c2cc(Oc3cc(C#N)ccc3-c3ccc(CN)cn3)n(C)n2)cn1` [compound 1309, 4-[5-(aminomethyl)pyridin-2-yl]-3-[2-methyl-5-(1-methylpyrazol-4-yl)pyrazol-3-yl]oxybenzonitrile]: the IC50 is 10 to 1000 nM.

For the molecule `Cc1cc(Oc2cc(C#N)ccc2-c2ncc(C(F)(F)CN)cn2)cc(N2CCOCC2)n1` [compound 1319, 4-[5-(2-amino-1,1-difluoroethyl)pyrimidin-2-yl]-3-(2-methyl-6-morpholin-4-ylpyridin-4-yl)oxybenzonitrile], the IC50 is 10 to 1000 nM.

Turning to `Cc1cc(Oc2cc(C#N)ccc2-c2ccc3c(n2)CNC3)cc(N2CCOCC2)n1` [compound 1297, 4-(6,7-dihydro-5H-pyrrolo[3,4-b]pyridin-2-yl)-3-(2-methyl-6-morpholin-4-ylpyridin-4-yl)oxybenzonitrile], the IC50 is 10 to 1000 nM.

`Cn1nc(C2CC2)cc1Oc1cc(F)ccc1-c1ncc([C@H](O)CN)cn1` [compound 1383, (1S)-2-amino-1-[2-[2-(5-cyclopropyl-2-methylpyrazol-3-yl)oxy-4-fluorophenyl]pyrimidin-5-yl]ethanol]: the IC50 is 10 to 1000 nM.

For the molecule `Cc1nc(Oc2cc(Cl)ccc2-c2ncc([C@@H](O)CN)cn2)cc(N2CCOCC2)n1` [compound 1376, (1R)-2-amino-1-[2-[4-chloro-2-(2-methyl-6-morpholin-4-ylpyrimidin-4-yl)oxyphenyl]pyrimidin-5-yl]ethanol], the IC50 was 10 to 1000 nM.

Regarding `Cn1nc(-c2ccccn2)cc1Oc1cc(Cl)ccc1-c1ncc([C@H](F)CN)cn1` [compound 1324, (2S)-2-[2-[4-chloro-2-(2-methyl-5-pyridin-2-ylpyrazol-3 yl)oxyphenyl]pyrimidin-5-yl]-2-fluoroethanamine], the IC50 was less than 10 nM.

As for `Cc1cc(Oc2cc(Cl)ccc2-c2ncc([C@@H](O)CN)cn2)cc(N2CCOCC2)n1` [compound 1350, (1R)-2-amino-1-[2-[4-chloro-2-(2-methyl-6-morpholin-4-ylpyridin-4-yl)oxyphenyl]pyrimidin-5-yl]ethanol], the IC50 is less than 10 nM.

Turning to `Cn1nc(C2CCOCC2)cc1Oc1cc(C#N)ccc1-c1ccc([C@H](F)CN)cn1` [compound 1369, 4-[5-[(1S)-2-amino-1-fluoroethyl]pyridin-2-yl]-3-[2-methyl-5-(oxan-4-yl)pyrazol-3-yl]oxybenzonitrile], the IC50 is less than 10 nM.

Take `Cn1nc(C2CC2)cc1Oc1cc(F)ccc1-c1ncc([C@@H](O)CN)cn1` [compound 1384, (1R)-2-amino-1-[2-[2-(5-cyclopropyl-2-methylpyrazol-3-yl)oxy-4-fluorophenyl]pyrimidin-5-yl]ethanol]: the IC50 is 10 to 1000 nM.

Take `Cn1nc(-c2ccccn2)cc1Oc1cc(C#N)ccc1-c1ncc(C(F)(F)CN)cn1` [compound 1318, 4-[5-(2-amino-1,1-difluoroethyl)pyrimidin-2-yl]-3-(2-methyl-5-pyridin-2-ylpyrazol-3-yl)oxybenzonitrile]: the IC50 was 10 to 1000 nM.

For the molecule `Cn1nc(-c2ccccn2)cc1Oc1cc(Cl)cnc1-c1ccc([C@@H](F)CN)cn1` [compound 1353, (2R)-2-[6-[5-chloro-3-(2-methyl-5-pyridin-2-ylpyrazol-3-yl)oxypyridin-2-yl]pyridin-3-yl]-2-fluoroethanamme], the IC50 is 10 to 1000 nM.

As to `Cn1nc(-c2ccccn2)cc1Oc1cc(C#N)ccc1-c1nc(Cl)ccc1CN` [compound 1333, 4-[3-(aminomethyl)-6-chloropyridin-2-yl]-3-(2-methyl-5-pyridin-2-ylpyrazol-3-yl)oxybenzonitrile], the IC50 is 10 to 1000 nM.

As for `Cn1nc(C2CCOCC2)cc1Oc1cc(Cl)cnc1-c1ccc(C(F)(F)CN)cn1` [compound 1399, 2-[6-[5-chloro-3-[2-methyl-5-(oxan-4-yl)pyrazol-3-yl]oxypyridin-2-yl]pyridin-3-yl]-2,2-difluoroethanamine], the IC50 was more than 1000 nM.

Regarding `Cn1nc(-c2ccccn2)cc1Oc1cc(Cl)ncc1-c1ccc(CCN)cc1` [compound 1332, 2-[4-[6-chloro-4-(2-methyl-5-pyridin-2-ylpyrazol-3-yl)oxypyridin-3-yl]phenyl]ethanamine], the IC50 was more than 1000 nM.

Consider `Cn1nc(C2CCOCC2)cc1Oc1cc(Cl)cnc1-c1ccc([C@@H](F)CN)cn1` [compound 1372, (2R)-2-[6-[5-chloro-3-[2-methyl-5-(oxan-4-yl)pyrazol-3-yl]oxypyridin-2-yl]pyridin-3-yl]-2-fluoroethanamine], for which the IC50 was more than 1000 nM.

Consider `Cn1nc(-c2ccccn2)cc1Oc1cc(F)ccc1-c1ncc(CN)cn1` [compound 1341, [2-[4-fluoro-2-(2-methyl-5-pyridin-2-ylpyrazol-3-yl)oxyphenyl]pyrimidin-5-yl]methanamine], for which the IC50 was 10 to 1000 nM.

`Cn1nc(-c2ccccn2)cc1Oc1cc(C#N)ccc1-c1ccc(C(F)(F)CN)cn1` [compound 1312, 4-[5-(2-amino-1,1-difluoroethyl)pyridin-2-yl]-3-(2-methyl-5-pyridin-2-ylpyrazol-3-yl)oxybenzonitrile]: the IC50 was less than 10 nM.

Turning to `Cc1cc(Oc2cc(Cl)ccc2-c2ncc(CCN)cn2)cc(N2CCOCC2)n1` [compound 1311, 2-[2-[4-chloro-2-(2-methyl-6-morpholin-4-ylpyridin-4-yl)oxyphenyl]pyrimidin-5-yl]ethanamine], the IC50 was 10 to 1000 nM.

For `Cn1nc(-c2ccccn2)cc1Oc1cc(Cl)cnc1-c1ccc([C@H](F)CN)cn1` [compound 1354, (2S)-2-[6-[5-chloro-3-(2-methyl-5-pyridin-2-ylpyrazol-3-yl)oxypyridin-2-yl]pyridin-3-yl]-2-fluoroethanamine], the IC50 was less than 10 nM.

In the case of `Cn1nc([C@H]2CCOC2)cc1Oc1cc(Cl)ccc1-c1ncc([C@@H](F)CN)cn1` [compound 1352, (2R)-2-[2-[4-chloro-2-[2-methyl-5-[(3R)-oxolan-3-yl]pyrazol-3-yl]oxyphenyl]pyrimidin-5-yl]-2-fluoroethanamine], the IC50 is 10 to 1000 nM.

`Cn1nc([C@H]2CCCOC2)cc1Oc1cc(C#N)ccc1-c1ccc(CN)cn1` [compound 1330, 4-[5-(aminomethyl)pyridin-2-yl]-3-[2-methyl-5-[(3R)-oxan-3-yl]pyrazol-3-yl]oxybenzonitrile]: the IC50 was less than 10 nM.

Turning to `Cn1nc(-c2ccccn2)cc1Oc1cc(C#N)ccc1-c1ncc2c(n1)CNC2` [compound 1393, 4-(6,7-dihydro-5H-pyrrolo[3,4-d]pyrimidin-2-yl)-3-(2-methyl-5-pyridin-2-ylpyrazol-3-yl)oxybenzonitrile], the IC50 is 10 to 1000 nM.

As for `COc1nc(-c2ccc(C#N)cc2Oc2cc(C)nc(N3CCOCC3)c2)ccc1CN` [compound 1305, 4-[5-(aminomethyl)-6-methoxypyridin-2-yl]-3-(2-methyl-6-morpholin-4-ylpyridin-4-yl)oxybenzonitrile], the IC50 is 10 to 1000 nM.
